Reference: patent US6830760B2, “Glyburide composition” (Bristol-Myers Squibb Company, priority 2000, dated 2004)

Assay: Glyburide particle size by laser light scattering / laser diffraction
Type: physicochemical
Settings: drug substance, laser diffraction particle size analysis
Procedure: Data from studies with metformin hydrochloride/glyburide tablets formulated with glyburide of different particle size characteristics allowed for the development of a correlation between glyburide particle size and the in vivo performance. The desired particle size distribution may be obtained by sieving or, preferably, air jet milling, and was measured by a laser light scattering method. The particle size measurement method of laser light scattering uses drug substance dispersed in liquid paraffin for introduction into the measurement cell. The apparatus produces a volume based, cumulative size distribution. […] The mill was operated with a Venturi nitrogen pressure of approximately 1.5 atmospheres and a micronization chamber pressure of 4 atmospheres. Size reduction was not allowed to proceed to the extent normally employed to make glyburide that would be described as micronized. The mill was turned off and the drug substance was discharged from it. A sample of the size-reduced glyburide was evaluated by a laser diffraction particle size analysis method.

D25% | D50% | D75% | SMILES
5 microns | 9 microns | 21 microns | COc1ccc(Cl)cc1C(=O)NCCc1ccc(S(=O)(=O)NC(=O)NC2CCCCC2)cc1 [Example 1, 5-chloro-N-[2-[4-[[[(cyclohexylamino)-carbonyl]amino]sulfonyl]phenyl]ethyl]-2-methoxybenzamide]
2.8 microns | 4.5 microns | 7.3 microns | COc1ccc(Cl)cc1C(=O)NCCc1ccc(S(=O)(=O)NC(=O)NC2CCCCC2)cc1 [commercially available micronized sample]
